The record followed here is ChEMBL document CHEMBL1129001, “From indomethacin to a selective COX-2 inhibitor: Development of indolalkanoic acids as potent and selective cyclooxygenase-2 inhibitors” (Bioorg Med Chem Lett, 1996).

Assay [1] deals with T1, Prostaglandin G/H synthase 1 (Rattus norvegicus, UniProt Q63921).
T1 sequence (Q63921 whole entry): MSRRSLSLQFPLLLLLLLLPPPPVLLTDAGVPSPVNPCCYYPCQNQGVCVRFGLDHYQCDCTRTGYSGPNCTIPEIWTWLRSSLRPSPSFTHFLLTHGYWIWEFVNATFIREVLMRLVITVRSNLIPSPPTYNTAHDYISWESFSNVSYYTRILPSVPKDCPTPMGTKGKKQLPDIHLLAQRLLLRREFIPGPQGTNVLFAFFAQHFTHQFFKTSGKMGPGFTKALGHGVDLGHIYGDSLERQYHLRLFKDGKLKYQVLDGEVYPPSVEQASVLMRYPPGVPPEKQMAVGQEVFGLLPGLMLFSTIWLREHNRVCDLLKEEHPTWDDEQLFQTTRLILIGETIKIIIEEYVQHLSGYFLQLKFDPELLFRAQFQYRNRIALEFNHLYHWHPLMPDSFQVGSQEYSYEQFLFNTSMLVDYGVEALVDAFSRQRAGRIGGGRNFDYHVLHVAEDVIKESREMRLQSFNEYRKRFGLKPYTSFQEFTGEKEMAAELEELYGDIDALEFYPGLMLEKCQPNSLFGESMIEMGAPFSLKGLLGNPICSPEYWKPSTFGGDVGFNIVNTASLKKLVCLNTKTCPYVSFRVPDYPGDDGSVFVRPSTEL
Description: Inhibition of Prostaglandin G/H synthase 1 using whole cell assay

For assay [2], the target named is T2, Prostaglandin G/H synthase 2 (Rattus norvegicus, UniProt P35355).
T2 sequence (P35355 whole entry): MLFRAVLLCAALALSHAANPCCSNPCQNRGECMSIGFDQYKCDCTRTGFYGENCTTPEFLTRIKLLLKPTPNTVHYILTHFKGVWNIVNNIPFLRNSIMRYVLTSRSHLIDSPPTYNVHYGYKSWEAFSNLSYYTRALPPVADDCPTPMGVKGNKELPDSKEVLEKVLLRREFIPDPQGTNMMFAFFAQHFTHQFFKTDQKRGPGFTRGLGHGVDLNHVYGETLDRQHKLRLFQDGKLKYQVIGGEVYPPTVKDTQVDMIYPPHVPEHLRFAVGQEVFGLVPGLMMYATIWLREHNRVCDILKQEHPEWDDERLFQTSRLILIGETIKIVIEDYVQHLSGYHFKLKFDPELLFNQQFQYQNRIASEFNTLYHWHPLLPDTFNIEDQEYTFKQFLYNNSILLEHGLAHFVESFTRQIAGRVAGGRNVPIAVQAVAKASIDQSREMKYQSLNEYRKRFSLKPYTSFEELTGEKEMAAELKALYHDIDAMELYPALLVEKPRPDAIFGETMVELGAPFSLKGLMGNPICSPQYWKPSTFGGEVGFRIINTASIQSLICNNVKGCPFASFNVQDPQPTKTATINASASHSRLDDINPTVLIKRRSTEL
Description: Inhibition of Prostaglandin G/H synthase 2

Another assay relates to Rattus norvegicus. In words: Compound was evaluated for inhibition of paw edema in rat. Format: functional.

`COc1ccc2c(c1)c(CC(=O)O)c(C)n2C(=O)c1c(Cl)cc(Cl)cc1Cl`: the figures for the IC50 in assay [1] and in assay [2] were over 100000 nM and 500 nM, respectively. This molecule registered an ED30 in the assay on Rattus norvegicus of 1.3 mg/kg.

Regarding `COc1ccc2c(c1)c(CC(C)C(=O)O)c(C)n2Cc1ccc(Br)cc1` (centres undefined), the IC50 in assay [1] is over 50000 nM; in assay [2], 3 nM. This molecule came in with an ED30 in the assay on Rattus norvegicus of 2.6 mg/kg.

For the molecule `COc1ccc2c(c1)c(CCC(=O)O)c(C)n2Cc1ccc(Br)cc1`, the IC50 is over 50000 nM in assay [1] and 3 nM in assay [2]. This molecule registered an ED30 with Rattus norvegicus of over 3 mg/kg.

Regarding `COc1ccc2c(c1)c(C(C)C(=O)O)c(C)n2Cc1ccc(Cl)cc1` (centres undefined), the figures for the IC50 in assay [1] and in assay [2] were 11000 nM and 20 nM, respectively. The ED30 in the assay with Rattus norvegicus worked out at 3 mg/kg.

For `COc1ccc2c(c1)c(C(C)CC(=O)O)c(C)n2Cc1ccc(Br)cc1` (centres undefined), the IC50 in assay [1] was over 50000 nM; in assay [2] it was 4 nM. The molecule also had an ED30 with Rattus norvegicus of 0.6 mg/kg.

For `COc1ccc2c(c1)c(CC1(CC(=O)O)CC1)c(C)n2Cc1ccc(Br)cc1`, the IC50 was over 10000 nM in assay [1] and 16 nM in assay [2]. Moreover, the ED30 in the assay with Rattus norvegicus stood at 0.5 mg/kg.

For `COc1ccc2c(c1)c([C@@H](C)[C@@H](C)C(=O)O)c(C)n2Cc1ccc(Br)cc1`, the figures for the IC50 in assay [1] and in assay [2] were over 50000 nM and 60 nM, respectively. The molecule further displayed an ED30 in the assay with Rattus norvegicus of 0.6 mg/kg.

As to `COc1ccc2c(c1)c(CC(=O)O)c(C)n2Cc1ccc(Br)cc1`, the half-inhibitory concentration (IC50) is 41000 nM in assay [1] and 9 nM in assay [2]. The ED30 in the assay on Rattus norvegicus was 0.6 mg/kg.

In the case of `COc1ccc2c(c1)c(CCC(C)C(=O)O)c(C)n2Cc1ccc(Br)cc1` (centres undefined), the figures for the IC50 in assay [1] and in assay [2] were over 10000 nM and 4 nM, respectively. The molecule further registered an ED30 in the assay with Rattus norvegicus of 1.6 mg/kg.

On to `COc1ccc2c(c1)c(CCCC(=O)O)c(C)n2Cc1ccc(Br)cc1`, for which the 50% inhibitory concentration (IC50) in assay [1] was over 50000 nM; in assay [2], 6 nM. Besides, in the assay with Rattus norvegicus, the ED30 stood at 1.2 mg/kg.

As to `COc1ccc2c(c1)c(CC(C)CC(=O)O)c(C)n2Cc1ccc(Br)cc1` (centres undefined), the IC50 in assay [1] is over 10000 nM; in assay [2] it was 2 nM. The same molecule returned an ED30 with Rattus norvegicus of 0.4 mg/kg.

`COc1ccc2c(c1)c(CC(=O)O)c(C)n2C(=O)c1ccc(Cl)cc1` [INDOMETHACIN] registered an ED30 with Rattus norvegicus of 0.9 mg/kg.
